Measured values published in patent US4179441A, “Fungidal and herbicidal 2-substituted-3-oxa-3aλ^4, 4-dithia-6-halo-1,5-diazapentalene” (Chevron Research Company, priority 1977, dated 1979).

Columns and labels:
[1] = system: Crabgrass (Digitaria sanguinalis); assay: Post-emergent herbicidal test; assay type: in vivo; settings: 0-to-100 scale
[2] = system: Lambsquarter (Chenopodium album); assay: Pre-Emergent herbicidal test; assay type: in vivo; settings: 33 micrograms/cm^2, 3 weeks, 0-to-100 scale, 100 = complete kill
Experimental: (§1) Pre-emergent herbicidal tests on representative compounds of the invention were made using the following method:
(§2) An acetone solution of the test compound was prepared by mixing 750 mg of the compound, 220 mg of a nonionic surfactant and 25 ml of acetone. This solution was added to approximately 125 ml of water containing 156 mg of surfactant.
(§3) Seeds of the test vegetation were planted in a pot of soil and the test solution was sprayed uniformly onto the soil surface at a dose of 33 micrograms/cm^2. The pot was watered and placed in a greenhouse. […] At the end of this period, the herbicidal effectiveness of the compound was rated based on the physiological observations. A 0-to-100 scale was used, 0 representing no phytotoxicity, 100 representing complete kill.

[3] = system: Crabgrass (Digitaria sanguinalis); assay: Pre-Emergent herbicidal test; assay type: in vivo; settings: 33 micrograms/cm^2, 3 weeks, 0-to-100 scale, 100 = complete kill
Experimental: as §1, §2, §3

[4] = system: Mustard (Brassica arvensis); assay: Pre-Emergent herbicidal test; assay type: in vivo; settings: 33 micrograms/cm^2, 3 weeks, 0-to-100 scale, 100 = complete kill
Experimental: as §1, §2, §3

Wild Oats (Avena fatua) [5] = assay: Pre-Emergent herbicidal test; assay type: in vivo; settings: 33 micrograms/cm^2, 3 weeks, 0-to-100 scale, 100 = complete kill
Experimental: as §1, §2, §3

[6] = system: Watergrass (Echinochloa crusgalli); assay: Pre-Emergent herbicidal test; assay type: in vivo; settings: 33 micrograms/cm^2, 3 weeks, 0-to-100 scale, 100 = complete kill
Experimental: as §1, §2, §3

Wild Oats (Avena fatua) [7] = assay: Post-emergent herbicidal test; assay type: in vivo; settings: 0-to-100 scale
[8] = system: Mustard (Brassica arvensis); assay: Post-emergent herbicidal test; assay type: in vivo; settings: 0-to-100 scale
Septoria apii = settings: in vivo
[9] = system: Watergrass (Echinochloa crusgalli); assay: Post-emergent herbicidal test; assay type: in vivo; settings: 0-to-100 scale
[10] = system: Lambsquarter (Chenopodium album); assay: Post-emergent herbicidal test; assay type: in vivo; settings: 0-to-100 scale
Erysiphe polygoni = assay: Powdery Mildew (bean seedlings); assay type: in vivo; settings: 240 h, 250 ppm spray on bean seedlings, about 10 days, relative to untreated check plants
Source text: The powdery mildew test was made using bean seedlings (var. Bountiful) with well-developed primary leaves. The pathogen was Erysiphe polygoni. The bean seedlings were sprayed with a 250 ppm solution of the test compound in an acetone-water mixture containing a nonionic emulsifier. The treated plants were inoculated one day after spray application of the test compound with the pathogen. […] The rate of infection on the leaves was made after about 10 days. The percent disease control provided by a given test compound was based on the disease reduction relative to untreated check plants.

Cc1cc(Cl)ccc1OCC1=NC2=S(O1)SN=C2Cl (stereo not drawn) [Compound 19]
Herbicidal Effectiveness - Post, C [1]: 0 | Herbicidal Effectiveness - Pre, L [2]: 100 | Herbicidal Effectiveness - Pre, C [3]: 85 | Herbicidal Effectiveness - Pre, M [4]: 100 | Herbicidal Effectiveness - Pre, O (Wild Oats (Avena fatua) [5]): 35 | Herbicidal Effectiveness - Pre, W [6]: 75 | Herbicidal Effectiveness - Post, O (Wild Oats (Avena fatua) [7]): 10 | Herbicidal Effectiveness - Post, M [8]: 100 | Celery Late Blight % Control (Septoria apii): 92% | Herbicidal Effectiveness - Post, W [9]: 40 | Herbicidal Effectiveness - Post, L [10]: 95 | pest or weed control at 250 ppm (Erysiphe polygoni): 57%
